Results on 2 molecules are retold here after patent US8426387B2, “Treatments for cancer” (priority 2006, dated 2013).

Assay [1] has as its system estrogen receptor positive cell lines. In words: cells. As to the method:
(§1) The relationship between diet and cancer is an active area of investigation. […] Fruits and vegetables are known to be good sources of dietary boron. To explore a possible cellular mechanism for the effect of boron on prostate cancer 1 mM boric acid was added to several cancer cell lines; three human prostate, and for comparison, five human breast cell lines.

For assay [2], the system named is DU-145 androgen receptor negative human prostate cell line. As to the method:
as §1

The subject of the next assay is DU-145. Particulars: 1 mM boric acid. The procedure:
as §1

The next assay concerns DU-145 cell line. Conditions: 1 mM boron. The procedure:
as §1

In assay [3] the test system is androgen receptor positive and receptor negative human prostate cancer cell lines. Particulars: 1 mM boric acid; RPMI1640 media. The procedure:
as §1

Assay [4] concerns estrogen receptor negative human breast cancer cell lines. Conditions: 1 mM boric acid; two cell lines; MEM supplemented with 10% FBS and 25 mM HEPES. The procedure:
as §1

Assay [5] deals with a breast cancer cell line. Particulars: 1 mM boron. As to the method: as §1
Assay [6] concerns the target T1, DU145 cell surface-bound uPA (Homo sapiens, UniProt P00749).
T1 construct: endogenous in cells; host or cells: DU145 prostate carcinoma cells
Conditions: DU145 cells; read-out: Ki value in cell surface-mediated plasminogen activation; cited from earlier work.

On to `OB(O)O` [boric acid], for which the growth inhibition entry is “failed to exhibit growth inhibition” in assay [1] (1 mM boric acid, two estrogen receptor positive cell lines, MEM media or RPMI1640, supplemented) and “did not show growth inhibition” in assay [4]. For the same molecule, the inhibition at 1000 µM in assay [1] (Homo sapiens, 216 h, read-out: inhibition in growth) amounted to 20%. For the same molecule, the “apoptosis by flow cytometry” value in assay [1] (third estrogen receptor positive breast cancer cell line, preliminary results) is “may be inducing apoptosis”. Further, the growth result in assay [2] (1 mM boric acid, supplemented RPMI media) was “completely arrested”. In addition, the “reversibility of growth inhibition” value in assay [2] (boric acid removed on Day 3, cell growth resumed by Day 6) is recorded as “reversible”. In addition, the “cell cycle block or apoptosis” value in the assay on DU-145 is “does not block the cell cycle or induce apoptosis”. The apoptosis or necrosis entry (in the assay with DU-145 cell line; in assay [5]) was “does not induce apoptosis or necrosis” each time. Besides, in assay [3], the growth response entry is given as “failed to show a response”.

B1: rMaspin(i): Purified recombinant maspin produced in baculovirus-infected Spodoptera frugiperda Sf9 insect cells (protein, UniProt P36952 1-375, looked up)
Serpin B5: MDALQLANSAFAVDLFKQLCEKEPLGNVLFSPICLSTSLSLAQVGAKGDTANEIGQVLHFENVKDVPFGFQTVTSDVNKLSSFYSLKLIKRLYVDKSLNLSTEFISSTKRPYAKELETVDFKDKLEETKGQINNSIKDLTDGHFENILADNSVNDQTKILVVNAAYFVGKWMKKFSESETKECPFRVNKTDTKPVQMMNMEATFCMGNIDSINCKIIELPFQNKHLSMFILLPKDVEDESTGLEKIEKQLNSESLSQWTNPSTMANAKVKLSIPKFKVEKMIDPKACLENLGLKHIFSEDTSDFSGMSETKGVALSNVIHKVCLEITEDGGDSIEVPGARILQHKDELNADHPFIYIIRHNKTRNIIFFGKFCSP
modifications: recombinant, Sf9 baculovirus-expressed
notes: Purified recombinant maspin produced in baculovirus-infected Spodoptera frugiperda Sf9 insect cells
Turning to B1, the Ki in assay [6] is 20 nM.

As a reminder, the inhibition is the percentage by which the read-out fell short of the control. The term Ki denotes the equilibrium dissociation constant of an inhibitor or competing ligand from its target.
